Experimental data as given in patent US20060019995A1, “2,3-dihydro-4(1H)-pyridone derivatives , method for production thereof and pharmaceutical composition comprising the same” (priority 2002, published 2006).

How the values were obtained:
[1] = system: social recognition (olfactory memory); experiment: Social recognition in the Wistar rat; type: in vivo; conditions: intraperitoneal route, 3 mg/kg, second encounter after 2 hours
Excerpt: Initially described in 1982 by THOR and HOLLOWAY (J. Comp. Physiol., 1982, 96, 1000-1006), the social recognition test has subsequently been proposed by various authors (DANTZER et al., Psychopharmacology, 1987, 91, 363-368; PER10 et al., Psycho-pharmacology, 1989, 97, 262-268) for studying the mnemocognitive effects of new compounds. The test is based on the natural expression of the olfactory memory of the rat and its natural tendency to forget and allows evaluation of memorisation, by recognition of a young congeneric animal, by an adult rat. A young rat (21 days), taken at random, is placed for 5 minutes in the cage housing an adult rat. With the aid of a video device, the experimenter observes the social recognition behaviour of the adult rat and measures its overall duration. The young rat is then removed from the adult rat's cage and is placed in its own cage until the second introduction. The adult rat is then given the compound under test (intraperitoneal route) and, after 2 hours, is again brought into the presence (5 minutes) of the young rat. The social recognition behaviour is then observed again and its duration measured.

[2] = system: PBQ-induced abdominal cramps; experiment: Abdominal contractions induced by phenyl-p-benzoquinone (PBQ) in the NMRI mouse; type: in vivo; conditions: IP, 20 mg/kg, PBQ at t=30 min, cramps counted t=35 to 45 min
Experimental: Intraperitoneal administration of an alcoholic solution of PBQ causes abdominal cramps in the mouse (SIEGMUND et al., Proc. Soc. Exp. Biol., 1957, 95, 729-731). The cramps are characterised by repeated contractions of the abdominal musculature, accompanied by extension of the hind limbs. Most analgesics antagonise these abdominal cramps (COLLIER et al., Brit. J. Pharmacol. Chem., 1968, 32, 295-310). At t=0 min., the animals are weighed and the compound being studied is administered by the IP route. A group of control animals is given the solvent used for the compound. At t=30 min., an alcoholic solution of PBQ (0.2%) is administered by the IP route in a volume of 0.25 ml/mouse. Immediately after administration of the PBQ, the animals are placed in cylinders of plexiglass (L=19.5 cm; I.D.=5 cm). From t=35 min. to t=45 min., the animals' reaction is observed and the experimenter notes the total number of abdominal cramps per animal.

## CC1CC(=O)C=C(c2ccccc2)N1C(=O)OC(C)(C)C (stereo not shown) [Example 3, Tert-butyl 2-methyl-4-oxo-6-phenyl-3,4-dihydro-1(2H)-pyridine-carboxylate]
[1]
  T2 − T1 (s) ± sem, difference between recognition times of the 2 encounters: -25.3 ± 7.1 s
[2]
  Inhibition (%) of the number of abdominal cramps measured in the control animals: 59%

## CC1CC(=O)C=C(c2cccc(Cl)c2)N1 (stereo not shown) [Example 6, 6-(3-Chlorophenyl)-2-methyl-2,3-dihydro-4(1H)-pyridone]
[1]
  T2 − T1 (s) ± sem, difference between recognition times of the 2 encounters: -21.4 ± 5.1 s
[2]
  Inhibition (%) of the number of abdominal cramps measured in the control animals: 48%

## CC1CC(=O)C=C(c2cccs2)N1C(=O)OC(C)(C)C (stereo not shown) [Example 1, Tert-butyl 2-methyl-4-oxo-6-(2-thienyl)-3,4-dihydro-1(2H)-pyridinecarboxylate]
[1]
  T2 − T1 (s) ± sem, difference between recognition times of the 2 encounters: -17.4 ± 2.5 s

## CC1CC(=O)C=C(c2cccs2)N1 (stereo not shown) [Example 2, 2-Methyl-6-(2-thienyl)-2,3-dihydro-4(1H)-pyridone]
[2]
  Inhibition (%) of the number of abdominal cramps measured in the control animals: 48%

## CC1CC(=O)C=C(c2ccc(Cl)nc2)N1 (stereo not shown) [Example 8, 6-(6-Chloro-3-pyridyl)-2-methyl-2,3-dihydro-4(1H)-pyridone]
[1]
  T2 − T1 (s) ± sem, difference between recognition times of the 2 encounters: -17.2 ± 4.6 s
